Measured values from DBAASP.
Values after ≈ are worked out from the molar mass of the structure shown. Values joined by “and” are separate entries in the source; they are usually repeats but may differ in a detail not shown here. Identical values can stand only once.

Key:
Test in all cases: ≥ marks a high value that may be exact or a test limit, other limits are often not marked, values filed in µg/mL are converted to µM
[1] = test system: Staphylococcus aureus ATCC 43300
[2] = test system: Staphylococcus aureus ATCC 29213
[3] = test system: Escherichia coli DH5alpha
[4] = test system: Klebsiella pneumoniae ATCC 10031
[5] = test system: Micrococcus luteus ATCC 10420
[6] = test system: Staphylococcus aureus ATCC 6538
[7] = test system: Staphylococcus epidermidis ATCC 9709
Listeria monocytogenes = test system: Listeria monocytogenes
[8] = test system: Salmonella enterica subsp. enterica serovar Typhimurium ATCC 14028
[9] = test system: Staphylococcus epidermidis ATCC 12228
[10] = test system: Escherichia coli ATCC 25404
Salmonella typhimurium = test system: Salmonella typhimurium
Escherichia coli O157 = test system: Escherichia coli O157
[11] = test system: Micrococcus luteus ATCC 4698
[12] = test system: Staphylococcus aureus ATCC 25923
[13] = test system: Escherichia coli ATCC 25922
[14] = test system: Candida albicans ATCC 10231
[15] = test system: Staphylococcus epidermidis KCTC 1917
[16] = test system: Pseudomonas aeruginosa ATCC 15422
[17] = test system: Enterococcus faecalis ATCC 29212
[18] = test system: Legionella pneumophila Lens
[19] = test system: Salmonella enterica subsp. enterica serovar Pullorum ATCC 7913
Candida albicans = test system: Candida albicans
[20] = test system: Candida tropicalis CGMCC 2.1975
Escherichia coli 1005 = test system: Escherichia coli 1005
[21] = test system: Candida parapsilosis CGMCC 2.3989
[22] = test system: Candida krusei CGMCC 2.1857
[23] = test system: Salmonella enterica subsp. enterica serovar Typhimurium ATCC 14028s
[24] = test system: Pseudomonas aeruginosa K799
Corynebacterium xerosis = test system: Corynebacterium xerosis
[25] = test system: Streptococcus pneumoniae ATCC 49619
[26] = test system: Streptococcus pyogenes ATCC 19615
Escherichia coli UB1005 = test system: Escherichia coli UB1005
[27] = test system: Staphylococcus epidermidis C621
Streptococcus mitis = test system: Streptococcus mitis

CC(C)C[C@H](NC(=O)[C@H](CC(C)C)NC(=O)[C@H](CCCCN)NC(=O)[C@H](CO)NC(=O)[C@H](CC(C)C)NC(=O)[C@H](C)NC(=O)[C@H](CCCCN)NC(=O)[C@H](Cc1ccccc1)NC(=O)[C@H](CC(C)C)NC(=O)[C@H](C)NC(=O)CNC(=O)[C@H](CC(C)C)NC(=O)[C@@H](N)Cc1ccccc1)C(=O)O [FLGALFKALSKLL]
MIC [1]: 4 µM (≈ 5.68 µg/mL) | MIC [2]: 4 µM and > 2 µM | MIC [3]: ≥ 98.5 µM | MIC [4]: 17.6 µM (≈ 25 µg/mL) | MIC [5]: 2 µM (≈ 2.84 µg/mL) | MIC [6]: 3.52 µM (≈ 5 µg/mL) | MIC [7]: 4 µM (≈ 5.68 µg/mL) | MIC (Listeria monocytogenes): 2 µM (≈ 2.84 µg/mL) | MIC [8]: > 70.4 µM | MIC [9]: 6.33 µM (≈ 9 µg/mL) | MIC [10]: ≥ 64 µM | MIC (Salmonella typhimurium): ≥ 64 µM | MIC (Escherichia coli O157): ≥ 64 µM | MIC [11]: 2.11 µM (≈ 3 µg/mL)

CC(C)C[C@H](NC(=O)[C@H](CC(C)C)NC(=O)[C@H](Cc1cnc[nH]1)NC(=O)[C@H](CO)NC(=O)[C@H](CC(C)C)NC(=O)[C@H](C)NC(=O)[C@H](CCCCN)NC(=O)[C@H](Cc1c[nH]c2ccccc12)NC(=O)[C@H](CC(C)C)NC(=O)[C@H](C)NC(=O)CNC(=O)[C@H](CC(C)C)NC(=O)[C@@H](N)Cc1ccccc1)C(=O)O [FLGALWKALSHLL]
MIC [12]: 4 µM (≈ 5.88 µg/mL) | MIC [5]: 4 µM (≈ 5.88 µg/mL) | MIC [7]: 4 µM (≈ 5.88 µg/mL) | MIC (Listeria monocytogenes): 8 µM (≈ 11.8 µg/mL) | MIC [10]: ≥ 64 µM | MIC (Salmonella typhimurium): ≥ 64 µM | MIC (Escherichia coli O157): ≥ 64 µM

CC(C)C[C@H](NC(=O)CNC(=O)[C@H](Cc1ccc(O)cc1)NC(=O)[C@H](Cc1cnc[nH]1)NC(=O)[C@@H]1CCCN1C(=O)[C@H](CC(C)C)NC(=O)[C@H](CCC(=O)O)NC(=O)[C@H](Cc1ccccc1)NC(=O)[C@H](C)NC(=O)[C@H](CO)NC(=O)[C@@H](N)CCCCN)C(=O)O [KSAFELPHYGL]
MIC [13]: > 500 µM | MIC [14]: > 500 µM | MIC [15]: ≥ 250 µM | MIC [16]: ≥ 500 µM | MIC [17]: 252 µM and 205 µM and 184 µM

CC[C@H](C)[C@H](NC(=O)[C@H](CC(C)C)NC(=O)CNC(=O)[C@H](CCCCN)NC(=O)[C@@H](NC(=O)[C@@H](NC(=O)[C@H](CCC(=O)O)NC(=O)[C@@H](NC(=O)[C@H](Cc1ccccc1)NC(=O)[C@H](CCCCN)NC(=O)[C@H](C)NC(=O)[C@@H](NC(=O)[C@@H](NC(=O)[C@H](CC(=O)O)NC(=O)[C@H](C)NC(=O)[C@@H](N)CCSC)C(C)C)[C@@H](C)CC)C(C)C)[C@@H](C)CC)C(C)C)C(=O)N[C@@H](CC(=O)O)C(=O)N[C@@H](CCC(N)=O)C(=O)N[C@@H](Cc1ccccc1)C(=O)N[C@H](C(=O)N[C@@H](CCC(N)=O)C(=O)N[C@@H](CCCCN)C(=O)O)[C@@H](C)O [MADVIAKFVEIVKGLIDQFTQK]
MIC [18]: 5.01 µM (≈ 12.5 µg/mL)

CC[C@H](C)[C@H](NC(=O)[C@H](Cc1ccccc1)NC(=O)[C@H](CC(=O)O)NC(=O)[C@@H](NC(=O)[C@H](C)NC(=O)[C@H](CCCCN)NC(=O)[C@H](CCCCN)NC(=O)[C@@H](NC(=O)[C@H](CC(C)C)NC(=O)[C@H](CC(=O)O)NC(=O)[C@@H](NC(=O)[C@@H](NC(=O)[C@H](Cc1ccccc1)NC(=O)[C@H](CCC(N)=O)NC(=O)[C@@H](N)CCSC)[C@@H](C)CC)[C@@H](C)O)[C@@H](C)CC)C(C)C)C(=O)N[C@@H](CCCCN)C(=O)NCC(=O)N[C@@H](CC(C)C)C(=O)N[C@@H](Cc1ccccc1)C(=O)NCC(=O)N[C@@H](CC(N)=O)C(=O)N[C@@H](CCCCN)C(=O)O [MQFITDLIKKAVDFIKGLFGNK]
MIC [18]: 1.23 µM (≈ 3.11 µg/mL)

CC[C@H](C)[C@H](NC(=O)[C@H](CCCN=C(N)N)NC(=O)[C@H](CCCN=C(N)N)NC(=O)[C@@H](NC(=O)[C@@H](NC(=O)[C@@H](N)CCCN=C(N)N)[C@@H](C)CC)[C@@H](C)CC)C(=O)N[C@@H](CCCN=C(N)N)C(=O)N[C@@H](CCCN=C(N)N)C(=O)N[C@H](C(=O)N[C@H](C(=O)N[C@@H](CCCN=C(N)N)C(N)=O)[C@@H](C)CC)[C@@H](C)CC [RIIRRIRRIIR]
MIC [1]: 16 µM (≈ 24.3 µg/mL) | MIC [19]: 16 µM (≈ 24.3 µg/mL) | MIC (Candida albicans): 8 µM (≈ 12.2 µg/mL) | MIC [13]: 16 µM and 32 µM | MIC [12]: 32 µM (≈ 48.6 µg/mL) | MIC [2]: 64 µM (≈ 97.3 µg/mL) | MIC [20]: 1 µM (≈ 1.52 µg/mL) | MIC (Escherichia coli 1005): 8 µM (≈ 12.2 µg/mL) | MIC [8]: 16 µM (≈ 24.3 µg/mL) | MIC [9]: 16 µM (≈ 24.3 µg/mL) | MIC [21]: ≥ 64 µM | MIC [22]: 4 µM (≈ 6.08 µg/mL)

CC[C@H](C)[C@H](NC(=O)[C@@H](NC(=O)[C@@H](NC(=O)[C@@H](NC(=O)[C@@H]1CCCN1C(=O)[C@H](CS)NC(=O)[C@H](CCCN=C(N)N)NC(=O)[C@H](CCCN=C(N)N)NC(=O)[C@@H](N)CCCN=C(N)N)[C@@H](C)CC)C(C)C)C(C)C)C(=O)N[C@@H](CCCN=C(N)N)C(=O)N[C@H](C(=O)N[C@@H](CS)C(=O)N[C@@H](CCCN=C(N)N)C(=O)N[C@@H](CCCN=C(N)N)C(=O)O)C(C)C [RRRCPIVVIRVCRR]
MIC [23]: ≥ 35.9 µM | MIC [12]: > 35.9 µM | MIC [24]: ≥ 35.9 µM | MIC (Corynebacterium xerosis): 0.281 µM (≈ 0.5 µg/mL) | MIC (Listeria monocytogenes): 1.12 µM (≈ 2 µg/mL) | MIC [25]: ≥ 35.9 µM | MIC [26]: 8.98 µM (≈ 16 µg/mL) | MIC (Escherichia coli UB1005): 4.49 µM (≈ 8 µg/mL) | MIC [17]: 35.9 µM (≈ 64 µg/mL) | MIC [27]: 8.98 µM (≈ 16 µg/mL) | MIC (Streptococcus mitis): 0.281 µM (≈ 0.5 µg/mL)

CC[C@H](C)[C@H](NC(=O)[C@@H](NC(=O)[C@@H](NC(=O)[C@@H]1CCCN1C(=O)[C@H](CS)NC(=O)[C@H](CC(C)C)NC(=O)[C@H](CCCN=C(N)N)NC(=O)[C@H](CCCN=C(N)N)NC(=O)[C@@H](N)CCCN=C(N)N)[C@@H](C)CC)C(C)C)C(=O)N[C@@H](CCCN=C(N)N)C(=O)N[C@H](C(=O)N[C@@H](CS)C(=O)N[C@@H](CCCN=C(N)N)C(=O)N[C@@H](CCCN=C(N)N)C(=O)O)C(C)C [RRRLCPIVIRVCRR]
MIC [23]: 17.8 µM (≈ 32 µg/mL) | MIC [12]: > 35.6 µM | MIC [24]: 17.8 µM (≈ 32 µg/mL) | MIC (Corynebacterium xerosis): 0.278 µM (≈ 0.5 µg/mL) | MIC (Listeria monocytogenes): 0.557 µM (≈ 1 µg/mL) | MIC [25]: ≥ 35.6 µM | MIC [26]: 4.45 µM (≈ 8 µg/mL) | MIC (Escherichia coli UB1005): 2.23 µM (≈ 4 µg/mL) | MIC [17]: 17.8 µM (≈ 32 µg/mL) | MIC [27]: 4.45 µM (≈ 8 µg/mL) | MIC (Streptococcus mitis): 0.557 µM (≈ 1 µg/mL)
